Laboratory results published in patent publication US20140323306A1, “Substituted 1,2,5-Oxadiazole Compounds and Their Use as Herbicides” (BASF SE, priority 2011, published 2014).

Tested on: CHEAL
Assay: Greenhouse herbicidal test, post-emergence treatment
Format: in vivo, Chenopodium album
Conditions: post-emergence method, application rate 0.25 kg/ha; scale from 0 to 100
Text: The seeds of the test plants were shown separately for each species. For the post-emergence treatment, the test plants were first grown to a height of 3 to 15 cm, depending on the plant habit, and only then treated with the active ingredients which had been suspended or emulsified in water. For this purpose, the test plants were either shown directly and grown in the same containers, or they were first grown separately as seedlings and transplanted into the test containers a few days prior to treatment. Depending on the species, the plants were kept at 10-25° C. or 20-35° C. The test period extended over 2 to 4 weeks. During this time, the plants were tended, and their response to the individual treatments was evaluated. Evaluation was carried out using a scale from 0 to 100. 100 means no emergence of the plants, or complete destruction of at least the aerial moieties, and 0 means no damage, or normal course of growth. A good herbicidal activity is given at values of at least 70 and a very good herbicidal activity is given at values of at least 85. The plants used in the greenhouse experiments belonged to the following species: [table]

For `Cc1nonc1NC(=O)c1c(Cl)cc(Cl)cc1Cl` [I′.A-2, 2,4,6-trichloro-N-(4-methyl-1,2,5-oxadiazol-3-yl)benzamide], the “herbicidal activity against CHEAL” value was “very good (a very good herbicidal activity is given at values of at least 85)”.
